Measurements reported in patent US6953788B1, “3-mercaptoacetylamino-1,5-substituted-2-oxo-azepan derivatives useful as inhibitors of matrix metalloproteinase” (Aventis Pharmaceuticals Inc., priority 1996, dated 2005).

Tests used:
MMP-3 (Stromelysin-1) = molecular target: T1, MMP-3 (Stromelysin-1) (Homo sapiens, UniProt P08254); experiment: Determination of inhibition constant (Ki) for MMP-3, fluorogenic substrate; format: biochemical; settings: activated MMP-3, 37° C., pH 7.6
T1 construct: The active MMP-3 was obtained by treatment of proMMP-3 with trypsin; endogenous in cells; host or cells: human rheumatoid synovial fibroblasts stimulated with macrophage-conditioned medium (secreted into the culture medium)
Procedure: Aliquots of the activated MMP-3 were stored at −20° C.
The activated MMP-3 is assayed using a fluorogenic substrate, Mca-Pro-Leu-Gly-Leu-Dpa-Ala-Arg-NH2, Knight, C. […] The increase in fluorescence due to cleavage of Gly-Leu peptide bond by MMP-3 was monitored with Perkin-Elmer LS50B Fluorimeter (λex328 nm, λem393 nm, excitation slit 2.5, emission slit 10). Substrate and inhibitor stock solutions were made in DMF and 0.1% HCl-DMF, respectively. […] The enzyme (10 μL of 0.2 μM MMP-3 dilution in assay buffer) was added at the last to start the reaction. […] Under these conditions, the measured Ki,app is close to true Ki.
(§1) The Ki for a competitive inhibitor is calculated using: v0/vi=(1+[I]/Ki,app) and Ki=Ki,app/(1+[S]/KM), where v0 is the initial rate in the absence of inhibitor, vi is the initial rate in the presence of inhibitor at the concentration of [I], [S] is the substrate concentration, and Km is the Michaelis constant. If slow binding is observed (i.e. if the approach to the binding equilibrium is slow), the final steady-state rate rather than the initial rate is taken as vi.

[1] = molecular target: T2, MMP-12 (macrophage metalloelastase) (Homo sapiens, UniProt P39900); experiment: Determination of inhibition constant (Ki) for MMP-12, fluorogenic substrate; format: biochemical; settings: 25C., pH 7.6
T2 construct: made in house
Procedure: as §1

T1 sequence (P08254 100-477): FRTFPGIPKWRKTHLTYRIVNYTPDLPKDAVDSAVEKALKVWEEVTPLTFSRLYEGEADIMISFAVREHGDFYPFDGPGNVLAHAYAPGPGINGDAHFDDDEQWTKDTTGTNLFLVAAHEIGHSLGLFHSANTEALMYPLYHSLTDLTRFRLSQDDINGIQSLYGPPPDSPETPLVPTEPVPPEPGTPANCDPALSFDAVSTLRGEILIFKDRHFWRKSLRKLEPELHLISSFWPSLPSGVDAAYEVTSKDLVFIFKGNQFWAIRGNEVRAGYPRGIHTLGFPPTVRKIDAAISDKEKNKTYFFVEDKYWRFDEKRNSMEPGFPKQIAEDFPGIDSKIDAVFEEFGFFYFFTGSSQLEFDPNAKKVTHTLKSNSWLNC
T2 sequence (P39900 106-263 limits assumed): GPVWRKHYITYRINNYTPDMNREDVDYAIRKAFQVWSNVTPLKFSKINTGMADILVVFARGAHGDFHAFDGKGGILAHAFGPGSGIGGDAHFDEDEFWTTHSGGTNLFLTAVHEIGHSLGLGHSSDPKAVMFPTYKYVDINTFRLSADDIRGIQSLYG

| SMILES | Ki (MMP-3 (Stromelysin-1)) [nM] | Ki [1] [nM] |
| --- | --- | --- |
| CNC(=O)[C@H](Cc1ccccc1)N1CCN(Cc2ccccc2)C[C@H](NC(=O)[C@@H](S)CCCCN2C(=O)c3ccccc3C2=O)C1=O (relative stereo) [IV-1, 2H-Isoindole-2-hexanamide, N-[hexahydro-4-[2-(methylamino)-2-oxo-1-(phenylmethyl)ethyl]-5-oxo-1-(phenylmethyl)-1H-1,4-diazepin-6-yl]-1,3-dihydro-α-mercapto-1,3-dioxo-, [6S-[4(R*), 6R*(R*)]]-] | 210 | – |
| CNC(=O)C(Cc1ccccc1)N1CCC(c2ccccc2)CC(NC(=O)C(S)CCCCN2C(=O)c3ccccc3C2=O)C1=O (stereo not drawn) [III-1, 2H-Isoindole-2-hexanamide, N-[hexahydro-1-[2-(methylamino)-2-oxo-1-(phenylmethyl)ethyl]-2-oxo-5-phenyl-1H-azepin-3-yl]-1,3-dihydro-α-mercapto-1,3-dioxo-, [3S-[1(R*), 3α, 5β]]-] | 73 | 53 |
